The target in one series is T1, human 5-HT1A receptors (Homo sapiens, UniProt P08908).
T1 construct: expressed in transfected cells; host or cells: CHO cells
T1 sequence (P08908 1-422): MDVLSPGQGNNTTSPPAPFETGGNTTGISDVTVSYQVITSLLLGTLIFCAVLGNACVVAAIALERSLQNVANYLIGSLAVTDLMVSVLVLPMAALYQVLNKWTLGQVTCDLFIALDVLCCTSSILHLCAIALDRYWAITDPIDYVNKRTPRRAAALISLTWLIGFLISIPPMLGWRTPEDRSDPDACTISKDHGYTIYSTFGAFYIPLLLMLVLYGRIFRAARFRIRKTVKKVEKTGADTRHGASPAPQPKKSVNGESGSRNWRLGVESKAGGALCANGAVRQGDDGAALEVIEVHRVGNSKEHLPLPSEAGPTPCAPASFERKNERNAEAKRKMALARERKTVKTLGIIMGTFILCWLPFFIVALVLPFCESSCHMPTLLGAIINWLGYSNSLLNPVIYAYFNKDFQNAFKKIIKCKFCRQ
In words: [3H] 8-OHDPAT displacement, 5-HT1A receptor affinity. It is filed as binding. The source says: High affinity for the serotonin 5-HT1A receptor was established by testing the claimed compound's ability to displace [^3H] 8-OHDPAT (dipropylaminbtetralin) from the 5-HT1A serotonin receptor following a modification of the procedure of Hall et al., J. Neurochem. 44, 1685 (1985) which utilizes CHO cells stably transfected with human 5-HT1A receptors.

Series [1] concerns the target T2, cloned human 5-HT1A receptors (Homo sapiens, UniProt P08908).
T2 construct: expressed in transfected cells
T2 sequence (P08908 1-422): T1 sequence (P08908 1-422)
In words: 35S-GTPγS binding assay, 5-HT1A antagonist function. It is filed as biochemical. As to conditions: reversal of 8-OHDPAT effect on 35S-GTPγS binding. The protocol:
Antagonist activity at 5-HT1A receptors was established by using a ^35S-GTPγS binding assay similar to that used by Lazareno and Birdsall (Br. J. Pharmacol. 109: 1120, 1993), in which the test compound's ability to affect the binding of ^35S-GTPγS to membranes containing cloned human 5-HT1A receptors was determined. Agonists produce an increase in binding whereas antagonists produce no increase but rather reverse the effects of the standard agonist 8-OHDPAT. The test compound's maximum inhibitory effect is represented as the Imax, while its potency is defined by the IC50.
In general terms: GTPγS resists hydrolysis and so accumulates on activated G proteins.

In another series the target is T3, serotonin transporter (Rattus norvegicus, UniProt P31652).
T3 construct: displace ^3H-paroxetine from male rat frontal cortical membranes; from tissue; host or cells: male rat frontal cortex membranes
T3 sequence (P31652 whole entry): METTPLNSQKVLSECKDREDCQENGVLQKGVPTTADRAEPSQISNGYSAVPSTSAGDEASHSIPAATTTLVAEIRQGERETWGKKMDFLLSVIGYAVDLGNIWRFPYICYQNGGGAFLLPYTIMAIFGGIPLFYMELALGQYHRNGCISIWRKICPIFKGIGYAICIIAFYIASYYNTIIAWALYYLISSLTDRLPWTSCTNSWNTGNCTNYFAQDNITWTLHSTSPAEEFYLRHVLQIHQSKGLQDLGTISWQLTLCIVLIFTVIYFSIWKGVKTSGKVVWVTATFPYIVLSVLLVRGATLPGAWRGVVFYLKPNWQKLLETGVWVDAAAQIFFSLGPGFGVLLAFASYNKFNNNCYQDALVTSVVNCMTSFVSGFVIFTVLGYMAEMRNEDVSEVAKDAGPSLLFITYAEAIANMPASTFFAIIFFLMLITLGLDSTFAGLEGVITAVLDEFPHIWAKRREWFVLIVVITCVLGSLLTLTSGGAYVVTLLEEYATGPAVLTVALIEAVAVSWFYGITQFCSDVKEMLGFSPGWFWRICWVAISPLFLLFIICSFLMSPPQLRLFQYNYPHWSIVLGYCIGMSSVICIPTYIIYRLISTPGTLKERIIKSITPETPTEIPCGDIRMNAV
In words: 3H-paroxetine displacement, serotonin transporter affinity. It is filed as binding.

pIC50, pKi: −log10 of the molar value.

By melting point is commonly meant the temperature of the solid-liquid transition. Turning to `CCc1cc2c3c(ccc2[nH]1)OCC(CN1CC=C(c2c[nH]c4ccccc24)CC1)O3` (stereo not shown) (hydrate or solvate) [Example 4, 8-Ethyl-2-[(4-(1H-indol-3-yl)-3,6-dihydropyridin-1(2H)-yl)methyl]-2,3-dihydro-7H-[1,4]dioxino[2,3-e]indole], the melting point lay within 175 to 177 °C.

The molecule `CCc1cc2c3c(ccc2[nH]1)OCC(CN1CC=C(c2c[nH]c4ccc(F)cc24)CC1)O3` (stereo not shown) (hydrate or solvate) [Example 5, 8-Ethyl-2-[(4-(5-fluoro-1H-indol-3-yl)-3,6-dihydropyridin-1(2H)-yl)methyl]2,3-dihydro-7H-[1,4]dioxino[2,3-e]indole] had a melting point of 81 to 82 °C.

The term pKi denotes the negative decadic logarithm of the Ki, by convention in mol/L. Higher therefore signals a low Ki. A word on the pIC50: it is the negative decadic logarithm of the IC50, by convention in mol/L. With `Cc1cc2c3c(ccc2[nH]1)OCC(CN1CC=C(c2c[nH]c4ccccc24)CC1)O3` (stereo not shown) [Example 1, 2-[(4-(1H-Indol-3-yl)-3,6-dihydropyridin-1(2H)-yl)methyl]-8-methyl-2,3-dihydro-7H-[1,4]dioxino[2,3-e]indole], the melting point was in the range of 212 to 215 °C. At human 5-HT1A receptors, this molecule had a pKi of 9.35. Moreover, in series [1], the “5-HT1A Function Imax (maximum inhibitory effect)” value is 100 and the pIC50 is 7.80. Besides, at serotonin transporter, the pKi was 8.46.

On to `C1=C(c2c[nH]c3ccccc23)CCN(CC2COc3ccc4[nH]ccc4c3O2)C1` (stereo not shown) [Example 2, 2-[(4-(1H-Indol-3-yl)-3,6-dihydropyridin-1(2H)-yl)methyl]-2,3-dihydro-7H-[1,4]dioxino[2,3-e]indole], for which the melting point worked out at 126 °C. This molecule gave a pKi at human 5-HT1A receptors of 8.81. For the same molecule, in series [1], the “5-HT1A Function Imax (maximum inhibitory effect)” value amounted to 52 and the pIC50 is 7.64. The negative logarithm of the Ki (pKi) on serotonin transporter was 9.11.

In the case of `Fc1ccc2[nH]cc(C3=CCN(CC4COc5ccc6[nH]ccc6c5O4)CC3)c2c1` (stereo not shown) [Example 3, 2-{[4-(5-Fluoro-1H-indol-3-yl)-3,6-dihydropyridin-1(2H)-yl]methyl}-2,3-dihydro-7H-[1,4]dioxino[2,3-e]indole], the melting point was determined as 112 °C. This molecule also gave a pKi on human 5-HT1A receptors of 8.61. In series [1], the “5-HT1A Function Imax (maximum inhibitory effect)” value amounted to 100 and the pIC50 is 7.95. Moreover, the negative logarithm of the Ki (pKi) at serotonin transporter was 8.91.

On to `CCc1cc2c3c(ccc2[nH]1)OCC(CN1CC=C(c2c[nH]c4ccccc24)CC1)O3` (stereo not shown) [Example 4, 8-Ethyl-2-[(4-(1H-indol-3-yl)-3,6-dihydropyridin-1(2H)-yl)methyl]-2,3-dihydro-7H-[1,4]dioxino[2,3-e]indole], for which the pKi at human 5-HT1A receptors was 8.34. Also, in series [1], the “5-HT1A Function Imax (maximum inhibitory effect)” value is reported as 78 and the pIC50 is 7.14. Besides, the pKi at serotonin transporter is 8.00.

In the case of `CCc1cc2c3c(ccc2[nH]1)OCC(CN1CC=C(c2c[nH]c4ccc(F)cc24)CC1)O3` (stereo not shown) [Example 5, 8-Ethyl-2-[(4-(5-fluoro-1H-indol-3-yl)-3,6-dihydropyridin-1(2H)-yl)methyl]2,3-dihydro-7H-[1,4]dioxino[2,3-e]indole], the pKi on human 5-HT1A receptors was 7.58. In series [1], the “5-HT1A Function Imax (maximum inhibitory effect)” value was 98 and the pIC50 was 6.58. The molecule further had a pKi on serotonin transporter of 8.00.
